Reference: patent publication US9808496B2, “Use of a myrtle extract as an anti-biofilm agent against P. acnes” (PIERRE FABRE DERMO-COSMETIQUE, priority 2012, dated 2017)

Experiments:
Type in all cases: cell-based, Propionibacterium acnes
P. acnes B872 (eryS) = test: Activity of the combination erythromycin/myrtle extract on P. acnes biofilm (24-well microplate); conditions: erythromycin 1000 μg/ml alone, 24 h contact on 48 h biofilm
Description: (§1) Myrtle extract is prepared according to example 2.
(§2) • Four Propionibacterium acnes strains were selected: Two Erythromycin-Resistant Strains (ERY R) • Propionibacterium acnes CIP 110371 • clinical isolate R4 Two Erythromycin-Sensitive Strains (ERY S) • Propionibacterium acnes CIP 53117T • clinical isolate B872 Protocol
(§3) A titrated suspension of P. acnes (about 10^6 CFU/ml), in minimal broth allowing no bacterial growth, was deposited in the wells of a 24-well microplate.
(§4) The microplates are placed under anaerobic conditions at 37±2° C. for 48 h, the time established for biofilm to form.
(§5) After 48 h, the supernatant of each well is discarded and then the wells are rinsed. Erythromycin and myrtle extract at various concentrations are added for a contact time of 24 h on the adhered cells (72 hours of adhesion in total).
(§6) The erythromycin concentration selected is 1000 μg/ml.
(§7) After 72 h of adhesion: • planktonic cells are counted • adhered (sessile) cells are counted after rinsing the well and then scraping in tryptone salt
(§8) Controls were prepared in parallel (adhered+planktonic cells) • 72 h biofilm control (with the medium changed at 48 h) • myrtle control at various concentrations (added after 48 h/24 h of contact) • 1000 μg/ml erythromycin control (added at 48 h/24 h of contact) • myrtle extract control at the concentrations tested
(§9) For all the wells in contact with erythromycin, 1 ml of each dilution is filtered on a membrane (Microfil®, Millipore) and then the filter is rinsed three times with 50 ml of sterile distilled water. The membranes are deposited on Columbia agar+5% sheep blood. The plates are incubated at 37±2° C. under anaerobic conditions. After 72 h to 96 h of incubation, the colony forming units (CFUs) are counted.
(§10) For all the biofilm controls and the myrtle extract alone, 100 μl of each dilution is inoculated by streaking on Columbia agar+5% sheep blood. The plates are incubated at 37±2° C. under anaerobic conditions. After 72 h to 96 h of incubation, the CFUs are counted. Results
(§11) This test consisted in evaluating the activity of erythromycin (1000 μg/ml) combined with myrtle extract, at concentrations of 0.03%, 0.001% and 0.0001%.
(§12) The results are expressed in log of the population counted.

[1] = system: P. acnes CIP 110371 (eryR); test: as above; conditions: erythromycin 1000 μg/ml alone, 24 h contact on 48 h biofilm, limit of detection 1.3 log
Description: as §1, §2, §3, §4, §5, §6, §7, §8, §9, §10, §11, §12

[2] = system: P. acnes CIP 53117T (eryS); test: as above; conditions: erythromycin 1000 μg/ml alone, 24 h contact on 48 h biofilm, limit of detection 1.3 log
Description: as §1, §2, §3, §4, §5, §6, §7, §8, §9, §10, §11, §12

P. acnes R4 (eryR) = test: as above; conditions: erythromycin 1000 μg/ml alone, 24 h contact on 48 h biofilm
Description: as §1, §2, §3, §4, §5, §6, §7, §8, §9, §10, §11, §12

[3] = system: two erythromycin-resistant strains (ERY R); test: Bactericidal activity of erythromycin on isolated bacteria; conditions: 1000 μg/ml
Description: as §6

[4] = system: P. acnes eryS strains and eryR strains; test: Erythromycin/myrtle extract on P. acnes biofilm, general conclusion over the strains
Description: as §2, §3, §4, §5, §7

`CC[C@H]1OC(=O)[C@H](C)[C@@H](O[C@H]2C[C@@](C)(OC)[C@@H](O)[C@H](C)O2)[C@H](C)[C@@H](O[C@@H]2O[C@H](C)C[C@H](N(C)C)[C@H]2O)[C@](C)(O)C[C@@H](C)C(=O)[C@H](C)[C@@H](O)[C@]1(C)O` [Ery, erythromycin] was tested, and the “Planktonic cells, Log (number of CFU/well)” value (P. acnes B872 (eryS); untreated control 4.0) was 1.3 Log (number of CFU/well), the “Adhered cells, Log (number of CFU/well)” value (P. acnes B872 (eryS); untreated control 4.4) was 4.0 Log (number of CFU/well) and the “Planktonic cells, Log (number of CFU/well)” value ([1]; untreated control 5.0) was 4.2 Log (number of CFU/well). For the same compound, the “Adhered cells, Log (number of CFU/well)” value ([1]; untreated control 5.3) was 4.1 Log (number of CFU/well), the “Adhered cells, Log (number of CFU/well)” value ([2]; untreated control 5.1) was 4.3 Log (number of CFU/well) and the “Planktonic cells, Log (number of CFU/well)” value ([2]; untreated control 5.5) was 1.3 Log (number of CFU/well). The “Planktonic cells, Log (number of CFU/well)” value (P. acnes R4 (eryR); untreated control 3.7) was 3.5 Log (number of CFU/well), the “Adhered cells, Log (number of CFU/well)” value (P. acnes R4 (eryR); untreated control 4.5) was 3.5 Log (number of CFU/well) and the Bactericidal activity [3] was “did not have bactericidal activity”. The “Bactericidal activity of erythromycin alone” value [4] was “high”.
